In ChEMBL document CHEMBL1151432, “Increased susceptibility to colistin in hypermutable Pseudomonas aeruginosa strains from chronic respiratory infections” (Antimicrob Agents Chemother, 2007):

Key:
Assay type in all cases: functional, organism-based
Pseudomonas aeruginosa [1] = test: Antimicrobial activity against non-hypermutable Pseudomonas aeruginosa isolated from patients with chronic respiratory infection by Etest method
Pseudomonas aeruginosa [2] = test: Antimicrobial activity against Pseudomonas aeruginosa PAO1 by Etest method
Pseudomonas aeruginosa [3] = test: Antimicrobial activity against Pseudomonas aeruginosa ATCC 27853 by Etest method
Pseudomonas aeruginosa [4] = test: Antimicrobial activity against hypermutable Pseudomonas aeruginosa isolated from patients with chronic respiratory infection by Etest method
Pseudomonas aeruginosa [5] = test: Antimicrobial activity against non-hypermutable Pseudomonas aeruginosa isolated from intensive care unit patients with chronic respiratory infection by Etest method
Pseudomonas aeruginosa [6] = test: Antimicrobial activity against mutS-deficient Pseudomonas aeruginosa PAO1 by Etest method

Work on COLISTIN yielded an MIC (Pseudomonas aeruginosa [1]) of 0.92 µg/mL, an MIC (Pseudomonas aeruginosa [2]) of 2 µg/mL and an MIC (Pseudomonas aeruginosa [3]) of 1 µg/mL. For the same sequence, the MIC (Pseudomonas aeruginosa [4]) was 0.48 µg/mL, the MIC (Pseudomonas aeruginosa [5]) was 2 µg/mL and the MIC (Pseudomonas aeruginosa [6]) was 2 µg/mL.
